Tests used:
PTP1B = molecular target: T1, PTP1B (Homo sapiens, UniProt P18031); assay: Selectivity pNPP assay, full-length PTPs: PTP1B; assay type: biochemical; conditions: full-length PTP, 10 nM, 500 µM pNPP
T1 construct: GST (N); host or cells: E. coli BL21 (DE3)
T1 sequence (P18031 1-435): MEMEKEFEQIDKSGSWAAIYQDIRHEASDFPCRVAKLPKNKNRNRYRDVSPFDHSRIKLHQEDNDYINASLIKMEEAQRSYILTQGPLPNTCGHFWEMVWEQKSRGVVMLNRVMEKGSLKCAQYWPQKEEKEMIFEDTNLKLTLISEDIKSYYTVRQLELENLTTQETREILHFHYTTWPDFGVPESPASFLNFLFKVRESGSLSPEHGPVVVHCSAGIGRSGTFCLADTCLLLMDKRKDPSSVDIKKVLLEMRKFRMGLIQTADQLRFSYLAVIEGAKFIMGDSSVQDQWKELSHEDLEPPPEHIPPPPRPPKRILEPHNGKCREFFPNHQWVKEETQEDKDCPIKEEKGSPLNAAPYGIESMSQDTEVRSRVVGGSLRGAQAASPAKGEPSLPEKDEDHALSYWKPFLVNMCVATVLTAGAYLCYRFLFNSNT
Excerpt: Constructs were transformed into BL21 (DE3) E. coli cells. Fusion proteins were purified on a glutathione sepharose column.

3xTg-AD and WT mice = assay: Novel object recognition (NOR) task; assay type: in vivo, mouse; conditions: 10 mg/kg i.p.
Protocol: Mice were first habituated to the task by allowing them to explore an empty white open field box (60 cm×60 cm) for 5 min. […] After the elapsed time, the mice completed the sample phase in which they were placed into the open field box with two identical objects located in the right and left corners. Mice were allowed to freely explore until they had accumulated a total of 30 s of object exploration (i.e., contact with the object with the nose and/or front paws), at which point the trial ended. The time spent with each object was recorded. Mice that were unable to complete the 30 s exploration within 20 min during the sample phase were excluded from the study (WT = 1 and AD = 3). Twenty-four hours later, mice completed the choice phase that was conducted in an identical manner to the sample phase except that one of the objects was substituted by a novel object and trial duration was set at 5 min. No drug treatments were given during the choice phase. Fifteen WT mice from the initial cohort were used to optimize the novel object conditions (to identify object pairings of inherent equal interest). Location of the novel object (left or right side) was counterbalanced to minimize possible bias. […] The DI was calculated for each subject by using the following formula: DI = (time spent exploring novel object – time spent exploring familiar object)/(total time spent exploring both objects). […]

[1] = tested on: ERK1/2 (Y204/187) and Pyk2 (Y402); assay: Tyr phosphorylation of ERK1/2 and Pyk2 in different organs of WT and STEP KO mice; assay type: in vivo, mouse
Aβ and phospho-tau = Aβ and phospho-tau levels in 12-mo-old 3xTg-AD mice; assay type: in vivo, mouse; conditions: 10 mg/kg i.p.
Protocol: Time spent with either a novel or familiar object was recorded using ANY-maze software. Square-root transformation was used to meet the assumptions of normality and equal variance of the raw data. All histograms are presented as means ± s.e.m. Student's t test was applied to determine significance differences (*p<0.05; WT-Veh, n = 10; WT TC, n = 11; AD-Veh, n = 22; AD-TC, n = 19). […] CTFs and Aβ are indicated by arrowheads. Representative 7PA2-CM (Aβ-enriched conditioned medium) immunoprecipitation is shown on right panel. Data are presented as means ± s.e.m. […] Data are presented as means ± s.e.m. […] (TIF) Click here for additional data file.

cortical cultures = assay: LDH release toxicity assay in cortical cultures; assay type: cell-based; conditions: up to 100 µM, up to 48 h, compared to positive controls
Protocol: Bovine LDH was used as a LDH-positive control. The media was collected and analyzed for LDH. The assay quantitatively measures LDH, a stable cytosolic enzyme that is released upon cell lysis. Released LDH in culture supernatants is measured with a 30-min coupled enzymatic assay, which results in the conversion of a tetrazolium salt (INT) into a red formazan product. The amount of color formed is proportional to the number of lysed cells.

PTP-SL = PTP-SL (Homo sapiens, UniProt Q15256); assay: biochemical
Chain of PTP-SL (Q15256 22-657): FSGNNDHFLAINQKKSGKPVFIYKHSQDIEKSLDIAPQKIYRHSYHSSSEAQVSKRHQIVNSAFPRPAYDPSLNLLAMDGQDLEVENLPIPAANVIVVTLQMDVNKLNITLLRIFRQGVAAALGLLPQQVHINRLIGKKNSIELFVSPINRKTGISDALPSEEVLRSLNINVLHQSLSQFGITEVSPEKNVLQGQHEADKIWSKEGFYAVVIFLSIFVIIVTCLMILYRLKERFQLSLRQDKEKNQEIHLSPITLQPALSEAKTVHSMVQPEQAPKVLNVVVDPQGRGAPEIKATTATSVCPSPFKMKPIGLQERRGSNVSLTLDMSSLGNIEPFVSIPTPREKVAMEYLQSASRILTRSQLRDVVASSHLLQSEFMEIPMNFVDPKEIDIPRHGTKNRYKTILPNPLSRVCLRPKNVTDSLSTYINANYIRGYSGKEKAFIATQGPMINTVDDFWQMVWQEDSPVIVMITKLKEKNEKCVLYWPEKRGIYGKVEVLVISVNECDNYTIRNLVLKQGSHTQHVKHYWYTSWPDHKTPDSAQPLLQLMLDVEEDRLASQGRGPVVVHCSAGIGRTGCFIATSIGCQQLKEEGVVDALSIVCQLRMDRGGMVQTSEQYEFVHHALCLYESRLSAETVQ
Protocol: Full-length HePTP and PTP-SL proteins were purchased from Abnova (Taipei, Taiwan). All proteins were dialyzed in 1,000-fold volume of buffer, which was repeated three times. […] After 10 min preincubation of enzyme and inhibitor at 27°C, 500 µM of pNPP was added and incubated for 30 min. Absorbance was taken at 405 nm using a Biotek plate reader.

STEP = molecular target: T2, STEP (Mus musculus, UniProt P54830); assay: Recovery of STEP activity by reducing agents; assay type: biochemical; conditions: after 1 h, DMSO control = 100%
T2 sequence (P54830 1-541): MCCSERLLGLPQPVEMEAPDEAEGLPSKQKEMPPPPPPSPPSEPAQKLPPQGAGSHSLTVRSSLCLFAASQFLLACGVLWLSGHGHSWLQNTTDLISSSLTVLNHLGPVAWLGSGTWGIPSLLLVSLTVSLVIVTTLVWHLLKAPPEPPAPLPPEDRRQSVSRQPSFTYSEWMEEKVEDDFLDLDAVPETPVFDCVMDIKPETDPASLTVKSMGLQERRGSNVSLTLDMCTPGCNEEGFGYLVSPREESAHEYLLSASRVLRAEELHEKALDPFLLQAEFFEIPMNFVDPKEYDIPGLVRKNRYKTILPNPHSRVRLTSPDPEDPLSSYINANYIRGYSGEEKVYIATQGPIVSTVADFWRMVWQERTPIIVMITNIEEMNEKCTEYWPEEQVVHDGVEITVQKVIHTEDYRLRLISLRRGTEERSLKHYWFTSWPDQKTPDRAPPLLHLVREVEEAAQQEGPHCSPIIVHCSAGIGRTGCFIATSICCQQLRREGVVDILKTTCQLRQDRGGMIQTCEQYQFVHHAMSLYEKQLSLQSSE
Protocol: Each sample was aliquoted out and 50 µL was transferred to wells of a 96-well microtiter plate containing 40 µL of 2× assay buffer with added reductant (GSH or DTT, 1 mM final concentration) and shaken for 0, 15, 30, or 60 additional minutes at ambient temperature. The reaction was started by addition of 10 µL of 10× pNPP substrate (stock, 20 mM, 2 mM in assay; total assay volume, 100 µL), and reaction progress was immediately monitored at 405 nm at a temperature of 27°C. The initial rate data collected were used to determine enzyme activity standardized to the DMSO controls.

SMILES: Cl.Nc1cc(C(F)(F)F)cc2c1SSSSS2 [TC-2153, 8-(trifluoromethyl)-1,2,3,4,5-benzopentathiepin-6-amine hydrochloride]
- IC50 (PTP1B): 723.9 ± 1.2 nM
- NOR memory in 12-mo-old AD mice (3xTg-AD and WT mice; 12-mo-old 3xTg-AD mice, familiar versus novel p<0.05): significant improvement of memory
- NOR cognitive function in 12-mo-old WT mice (3xTg-AD and WT mice; WT mice, 12 mo cohort): did not affect cognitive function
- pERK1/2 and pPyk2 in hippocampus and frontal cortex of STEP KO mice ([1]; STEP KO mice): did not increase the Tyr phosphorylation of these substrates over baseline levels
- pERK1/2 and pPyk2 in frontal cortex and hippocampus ([1]; WT mice, 10 mg/kg i.p., 3 h): significant increase in pERK1/2 and pPyk2
- pERK1/2 and pPyk2 in cerebellum, spleen, kidney, pancreas (tissues without STEP) ([1]; mice, 10 mg/kg i.p., 3 h): not in the cerebellum or in all tissues tested outside the brain
- Aβ or phospho-tau levels (Aβ and phospho-tau): no significant changes in Aβ or phospho-tau levels
- Aβ or phospho-tau levels (Aβ and phospho-tau; row): did not affect the Aβ and tau brain pathology
- LDH release (neuronal cell death) (cortical cultures): no significant effect on LDH release
- IC50 (PTP-SL): 220.6 ± 1.3 nM
- Recovery of STEP activity with DTT (STEP; STEP 200 nM preincubated with 5 µM TC-2153, 1 mM DTT): 75%
- Recovery of STEP activity with GSH (STEP; STEP 200 nM preincubated with 5 µM TC-2153, 1 mM GSH): 29%
